Source: article PMC9909341, “TLQP-21 is a low potency partial C3aR activator on human primary macrophages” (Frontiers in Immunology, 2023)

How the values were obtained:
[1] = test system: human C3aR (HMDMs); assay: inhibition of ligand-induced ERK1/2 phosphorylation by SB290157 in HMDMs; format: cell-based; conditions: 5 µM SB290157, 30 min pre-treatment
From the text: HMDMs were generated and cultured as previously described ([20]), with experiments approved by The University of Queensland Human Research Ethics Committee. Briefly, human buffy coat blood from anonymous healthy donors was obtained through the Australian Red Cross Blood Service (Brisbane, Australia). Human CD14+ monocytes were isolated from blood using Lymphoprep density centrifugation (STEMCELL, Melbourne, Australia) followed by CD14+ MACS magnetic bead separation (Miltenyi Biotec, Sydney, Australia). The isolated monocytes were differentiated for 7 days in Iscove’s Modified Dulbecco’s Medium supplemented with 10% FBS, 100 IU/ml penicillin, 100 μg/ml streptomycin and 15 ng/ml recombinant human macrophage colony stimulating factor (BioLegend, San Diego, USA) on 10 mm square dishes (Bio-strategy, Brisbane, Australia). Non-adherent cells were removed by washing with DPBS, and the adherent differentiated HMDMs were harvested by gentle scraping.
Ligand-induced ERK1/2 phosphorylation was assessed using the AlphaLISA Surefire Ultra p-ERK1/2 (Thr202/Tyr204) kit (PerkinElmer, Melbourne, Australia) following the manufacturer’s protocol as previously described ([18], [20], [22]). Briefly, CHO-K1, CHO-C3aR, CHO-C5aR1, HMDMs (50,000/well) or BMDMs (90,000/well) were seeded in tissue culture-treated 96-well plates (Corning, Corning, USA) for 24 h and serum-starved overnight. All ligand dilutions were prepared in serum-free medium (SFM) containing 0.1% BSA. For inhibition assays, cells were pre-treated with the following ligands (5 µM SB290157, or respective concentrations of hC3a, mC3a, hC5a, hTLQP-21, and mTLQP-21) or the solvent-only control for 30 min before agonist (hC3a, hTLQP-21 and mTLQP-21) addition. The concentration and identity of the ligands are described in detail in the figure legends. For stimulation, cells were treated with ligands at the indicated concentrations for 10 min at RT and then immediately lysed using AlphaLISA lysis buffer on a microplate shaker (450 rpm, 10 min). For the detection of phospho-ERK1/2 content, cell lysate (5 μL/well) was transferred to a 384-well ProxiPlate (PerkinElmer, Melbourne, Australia) and added to the donor and acceptor reaction mix (2.5 μL/well, respectively), followed by a 2-h incubation at RT in the dark. On a Tecan Spark 20M (Tecan, Männedorf, Switzerland), the plate was measured using standard AlphaLISA settings.
Figure 3 Agonistic and antagonistic activities of hTLQP-21 and mTLQP-21 in human monocyte-derived macrophages. […] The phospho-ERK1/2 content in the cell lysate was measured and normalised to the maximum hC3a/hC5a-induced levels before being combined. […]

[2] = test system: C3aR; conditions: at the concentration used (5 µM); ref [20]; cited from earlier work
From the text: (§1) However, only mouse TLQP-21 was used in these studies and to the best of our knowledge, no data is available for the potential activity of TLQP-21 in human immune cells. […] However, by contrast to hC3a, the agonistic activity of TLQP-21 peptides was markedly weaker in HMDMs relative to CHO-C3aR, with EC50 values in the high micromolar ...

[3] = test system: C5aR1; conditions: at the concentration used (5 µM); ref [20]; cited from earlier work
From the text: as §1

For `NC(N)=NCCC[C@H](NC(=O)COCC(c1ccccc1)c1ccccc1)C(=O)O` [SB290157], the “inhibition of hTLQP-21 and mTLQP-21 induced ERK signalling” value ([1]; HMDMs, n = 4 donors) was 70-90%, the “remaining C3a-induced ERK signalling with SB290157” value ([1]; agonist C3a, HMDMs) was “less than 20 % of the untreated level” and the “remaining hTLQP-21 induced ERK activation with SB290157” value ([1]; agonist hTLQP-21) was 29 % of the control level. For the same molecule, the “remaining mTLQP-21 induced ERK activation with SB290157” value ([1]; agonist mTLQP-21) was 16 % of the control level, the “agonist activity of SB290157 on C3aR” value [2] was “does not exhibit any detectable agonist activity” and the “agonist activity of SB290157 on C5aR1” value [3] was “does not exhibit any detectable agonist activity”.
